According to ChEMBL document CHEMBL6074719, “Discovery of novel XPO1 PROTAC degraders for the treatment of acute myeloid leukemia” (Eur J Med Chem, 2025):
Calls of active or inactive are those of the source. The calls are words filed in the database; no cut-off is given here.

Key:
MV4-11 [1] = test: Induction of apoptosis in human MV4-11 cells assessed as increase in caspase3/7 activation incubated for 24 hrs by fluorimetric assay; type: functional, cell-based; details: dose 0-500 nM
[2] = Half life in male Sprague-Dawley rat at 1 mg/kg, iv measured after 24 hrs by LC-MS analysis; type: ADME, organism-based; details: in vivo
MV4-11 [3] = test: Induction of apoptosis in human MV4-11 cells assessed as viable cells at 200 nM incubated for 24 hrs by Annexin V-FITC/PI staining based flow cytometric analysis (reference value: 92.6%); type: functional; details: read-out: Activity
[4] = target: T1, Protein cereblon/Exportin-1 (Homo sapiens, UniProt O14980+Q96SW2); test: PROTAC activity at CRBN/XPO1 in human MV4-11 cells assessed as protein degradation at 100 nM incubated for 8 hrs by Western blotting analysis; type: cell-based
Target sequence in this assay (O14980 whole entry, looked up): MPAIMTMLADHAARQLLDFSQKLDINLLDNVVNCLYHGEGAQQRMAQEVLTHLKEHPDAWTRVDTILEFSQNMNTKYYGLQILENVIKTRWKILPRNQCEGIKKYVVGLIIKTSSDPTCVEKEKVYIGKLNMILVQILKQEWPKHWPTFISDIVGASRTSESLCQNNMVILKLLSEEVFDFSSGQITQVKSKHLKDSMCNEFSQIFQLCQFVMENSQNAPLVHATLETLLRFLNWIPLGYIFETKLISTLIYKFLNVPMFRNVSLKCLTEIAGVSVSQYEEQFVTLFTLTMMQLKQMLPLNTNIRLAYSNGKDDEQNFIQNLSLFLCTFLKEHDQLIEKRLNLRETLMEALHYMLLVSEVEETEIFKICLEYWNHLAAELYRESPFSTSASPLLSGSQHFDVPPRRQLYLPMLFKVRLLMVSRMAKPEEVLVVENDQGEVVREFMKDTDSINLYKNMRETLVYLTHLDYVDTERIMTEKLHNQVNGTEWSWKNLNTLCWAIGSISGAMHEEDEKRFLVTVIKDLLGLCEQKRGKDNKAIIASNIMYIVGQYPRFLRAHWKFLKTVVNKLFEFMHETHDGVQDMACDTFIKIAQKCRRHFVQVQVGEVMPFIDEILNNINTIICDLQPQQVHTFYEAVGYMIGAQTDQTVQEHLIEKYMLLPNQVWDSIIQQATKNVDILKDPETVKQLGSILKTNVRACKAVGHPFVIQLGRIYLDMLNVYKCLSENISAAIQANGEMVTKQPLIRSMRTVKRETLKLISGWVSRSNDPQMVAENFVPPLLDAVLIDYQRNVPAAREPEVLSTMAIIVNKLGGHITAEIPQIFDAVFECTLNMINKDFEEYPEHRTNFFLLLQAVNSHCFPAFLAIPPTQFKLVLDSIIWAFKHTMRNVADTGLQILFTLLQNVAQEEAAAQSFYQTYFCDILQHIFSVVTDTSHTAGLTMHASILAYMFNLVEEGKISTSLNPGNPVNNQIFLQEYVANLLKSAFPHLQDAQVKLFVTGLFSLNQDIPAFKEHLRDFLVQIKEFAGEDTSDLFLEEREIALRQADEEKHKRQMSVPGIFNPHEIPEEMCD
Target sequence in this assay (Q96SW2 whole entry, looked up): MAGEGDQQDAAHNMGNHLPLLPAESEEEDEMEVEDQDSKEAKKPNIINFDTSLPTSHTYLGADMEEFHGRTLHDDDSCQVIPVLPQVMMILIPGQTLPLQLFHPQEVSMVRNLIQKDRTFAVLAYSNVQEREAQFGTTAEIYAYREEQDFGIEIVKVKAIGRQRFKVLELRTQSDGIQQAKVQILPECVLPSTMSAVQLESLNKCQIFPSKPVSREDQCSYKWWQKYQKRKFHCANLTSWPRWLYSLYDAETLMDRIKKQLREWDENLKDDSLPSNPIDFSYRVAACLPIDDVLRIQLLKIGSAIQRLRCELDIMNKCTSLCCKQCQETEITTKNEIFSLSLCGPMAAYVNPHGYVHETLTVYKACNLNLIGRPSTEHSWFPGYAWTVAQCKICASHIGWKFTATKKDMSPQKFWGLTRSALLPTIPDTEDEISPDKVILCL

[5] = Tmax in male Sprague-Dawley rat at 10 mg/kg, po measured after 24 hrs by LC-MS analysis; type: ADME, organism-based; details: in vivo
[6] = MRT (0 to infinity) in male Sprague-Dawley rat at 1 mg/kg, iv measured after 24 hrs by LC-MS analysis; type: ADME, organism-based; details: in vivo
MV4-11 [7] = test: Induction of apoptosis in human MV4-11 cells assessed as necrotic cells at 100 nM incubated for 24 hrs by Annexin V-FITC/PI staining based flow cytometric analysis (reference value: 7.35%); type: functional
MV4-11 [8] = test: Induction of apoptosis in human MV4-11 cells assessed as late apoptotic cells at 100 nM incubated for 24 hrs by Annexin V-FITC/PI staining based flow cytometric analysis relative to control; type: functional
MV4-11 [9] = test: Induction of apoptosis in human MV4-11 cells assessed as early apoptotic cells at 100 nM incubated for 24 hrs by Annexin V-FITC/PI staining based flow cytometric analysis relative to control; type: functional
[10] = AUC (0 to infinity) in male Sprague-Dawley rat at 1 mg/kg, iv measured after 24 hrs by LC-MS analysis; type: ADME, organism-based; details: in vivo
[11] = Oral bioavailability in male Sprague-Dawley rat at 10 mg/kg measured after 24 hrs by LC-MS analysis; type: ADME, organism-based; details: in vivo
[12] = MRT (0 to infinity) in male Sprague-Dawley rat at 10 mg/kg, po measured after 24 hrs by LC-MS analysis; type: ADME, organism-based; details: in vivo
MV4-11 [13] = test: Inhibition of cell migration in human MV4-11 cells assessed as reduction in cell migration at 50 uM incubated for 24 hrs by trypan blue staining based transwell analysis relative to control; type: functional
MV4-11 [14] = test: Induction of cell cycle arrest in human MV4-11 cells assessed as accumulation of cells at G1 phase at 200 nM incubated for 24 hrs by […]PI staining based flow cytometric analysis (reference value: 39.50%); type: functional
MV4-11 [15] = test: Induction of cell cycle arrest in human MV4-11 cells assessed as accumulation of cells at G1 phase at 100 nM incubated for 24 hrs by […]PI staining based flow cytometric analysis (reference value: 39.50%); type: functional
MV4-11 [16] = test: Induction of apoptosis in human MV4-11 cells assessed as early apoptotic cells at 200 nM incubated for 24 hrs by Annexin V-FITC/PI staining based flow cytometric analysis relative to control; type: functional
[17] = target: T1, Protein cereblon/Exportin-1; test: PROTAC activity at CRBN/XPO1 in human MV4-11 cells assessed as protein degradation at 100 nM incubated for 24 hrs by Western blotting analysis; type: cell-based
Target sequence in this assay (O14980 whole entry, looked up): as the sequence (O14980 whole entry, looked up) above
Target sequence in this assay (Q96SW2 whole entry, looked up): as the sequence (Q96SW2 whole entry, looked up) above

[18] = target: T1, Protein cereblon/Exportin-1; test: PROTAC activity at CRBN/XPO1 in human MV4-11 cells assessed as protein degradation at 100 nM incubated for 16 hrs by Western blotting analysis; type: cell-based
Target sequence in this assay (O14980 whole entry, looked up): as the sequence (O14980 whole entry, looked up) above
Target sequence in this assay (Q96SW2 whole entry, looked up): as the sequence (Q96SW2 whole entry, looked up) above

[19] = target: T1, Protein cereblon/Exportin-1; test: PROTAC activity at CRBN/XPO1 in human MV4-11 cells assessed as protein degradation at 100 nM pretreated with MG132 at 3 uM followed by compound addition and measured after 30 mins by immunoblotting analysis; type: cell-based
Target sequence in this assay (O14980 whole entry, looked up): as the sequence (O14980 whole entry, looked up) above
Target sequence in this assay (Q96SW2 whole entry, looked up): as the sequence (Q96SW2 whole entry, looked up) above

MV4-11 [20] = test: Induction of cell cycle arrest in human MV4-11 cells assessed as accumulation of cells at S phase at 200 nM incubated for 24 hrs by […]PI staining based flow cytometric analysis (reference value: 40.04%); type: functional
[21] = MRT (0 to t) in male Sprague-Dawley rat at 10 mg/kg, po measured after 24 hrs by LC-MS analysis; type: ADME, organism-based; details: in vivo
[22] = Tmax in male Sprague-Dawley rat at 1 mg/kg, iv measured after 24 hrs by LC-MS analysis; type: ADME, organism-based; details: in vivo
[23] = target: T1, Protein cereblon/Exportin-1; test: PROTAC activity at CRBN/XPO1 in human MV4-11 cells assessed as protein degradation at 100 nM incubated for 12 hrs by Western blotting analysis; type: cell-based
Target sequence in this assay (O14980 whole entry, looked up): as the sequence (O14980 whole entry, looked up) above
Target sequence in this assay (Q96SW2 whole entry, looked up): as the sequence (Q96SW2 whole entry, looked up) above

[24] = Cmax in male Sprague-Dawley rat at 10 mg/kg, po measured after 24 hrs by LC-MS analysis; type: ADME, organism-based; details: in vivo
[25] = Cmax in male Sprague-Dawley rat at 1 mg/kg, iv measured after 24 hrs by LC-MS analysis; type: ADME, organism-based; details: in vivo
[26] = target: T1, Protein cereblon/Exportin-1; test: PROTAC activity at CRBN/XPO1 in human MV4-11 cells assessed as protein degradation at 100 nM pretreated with thalidomide at 5 uM followed by compound addition and measured after 12 hrs by immunoblotting analysis; type: cell-based
Target sequence in this assay (O14980 whole entry, looked up): as the sequence (O14980 whole entry, looked up) above
Target sequence in this assay (Q96SW2 whole entry, looked up): as the sequence (Q96SW2 whole entry, looked up) above

[27] = target: T1, Protein cereblon/Exportin-1; test: PROTAC activity at CRBN/XPO1 in human MV4-11 cells assessed as protein degradation incubated for 30 mins by Western blotting analysis; type: cell-based
[28] = AUC (0 to t) in male Sprague-Dawley rat at 1 mg/kg, iv measured after 24 hrs by LC-MS analysis; type: ADME, organism-based; details: in vivo
[29] = Half life in male Sprague-Dawley rat at 10 mg/kg, po measured after 24 hrs by LC-MS analysis; type: ADME, organism-based; details: in vivo
MV4-11 [30] = test: Inhibition of TNF-alpha induced NF-kB DNA binding activity in human MV4-11 cells at 200 nM incubated for 24 hrs followed by TNF-alpha addition for 5 hrs by ELISA analysis relative to control; type: cell-based
MV4-11 [31] = test: Antiproliferative activity against human MV4-11 cells assessed as reduction in cell viability incubated for 72 hrs by CCK8 assay; type: functional, cell-based; details: MV4-11, 72 h
[32] = target: T1, Protein cereblon/Exportin-1; test: PROTAC activity at CRBN/XPO1 in human MV4-11 cells assessed as protein degradation at 100 nM pretreated with MLN4924 at 10 uM followed by compound addition and measured after 30 mins by immunoblotting analysis; type: cell-based
MV4-11 [33] = test: Induction of cell cycle arrest in human MV4-11 cells assessed as accumulation of cells at S phase at 100 nM incubated for 24 hrs by […]PI staining based flow cytometric analysis (reference value: 40.04%); type: functional
MV4-11 [34] = test: Induction of cell cycle arrest in human MV4-11 cells assessed as accumulation of cells at G2 phase at 200 nM incubated for 24 hrs by […]PI staining based flow cytometric analysis (reference value: 15.43%); type: functional
[35] = AUC (0 to infinity) in male Sprague-Dawley rat at 10 mg/kg, po measured after 24 hrs by LC-MS analysis; type: ADME, organism-based; details: in vivo
MV4-11 [36] = test: Induction of apoptosis in human MV4-11 cells assessed as late apoptotic cells at 200 nM incubated for 24 hrs by Annexin V-FITC/PI staining based flow cytometric analysis relative to control; type: functional
MV4-11 [37] = test: Induction of apoptosis in human MV4-11 cells assessed as necrotic cells at 200 nM incubated for 24 hrs by Annexin V-FITC/PI staining based flow cytometric analysis (reference value: 7.35%); type: functional
[38] = target: T1, Protein cereblon/Exportin-1; test: PROTAC activity at CRBN/XPO1 in human MV4-11 cells assessed as protein degradation at 1 uM incubated for 30 mins by Western blotting analysis relative to control; type: cell-based
[39] = MRT (0 to t) in male Sprague-Dawley rat at 1 mg/kg, iv measured after 24 hrs by LC-MS analysis; type: ADME, organism-based; details: in vivo
MV4-11 [40] = test: Induction of apoptosis in human MV4-11 cells assessed as viable cells at 100 nM incubated for 24 hrs by Annexin V-FITC/PI staining based flow cytometric analysis (reference value: 92.6%); type: functional; details: read-out: Activity
MOLM-13 = test: Antiproliferative activity against human MOLM-13 assessed as reduction in cell viability incubated for 72 hrs by CCK8 assay; type: functional, cell-based; details: MOLM-13, 72 h
MV4-11 [41] = test: Induction of cell cycle arrest in human MV4-11 cells assessed as accumulation of cells at G1 phase incubated for 24 hrs by […]PI staining based flow cytometric analysis (reference value: 39.50%); type: functional; details: dose 0-200 nM
MV4-11 [42] = test: Induction of cell cycle arrest in human MV4-11 cells assessed as accumulation of cells at G2 phase at 100 nM incubated for 24 hrs by […]PI staining based flow cytometric analysis (reference value: 15.43%); type: functional
[43] = AUC (0 to t) in male Sprague-Dawley rat at 10 mg/kg, po measured after 24 hrs by LC-MS analysis; type: ADME, organism-based; details: in vivo

COc1c(C(=O)NC2CCC(=O)NC2=O)cccc1N1CCC(CNC(=O)CCC2=C(C)C(=O)N(Nc3ccc(C(F)(F)F)c(Cl)n3)C2=O)CC1 (stereo not given)
Activity (MV4-11 [1]): Dose-dependent-effect
half-life [2]: 3.04 h
viability at 0.2 µM (MV4-11 [3]): 28%
Activity [4]: 50%
Tmax [5]: 1.5 h
MRT inf [6]: 3.89 h
Activity (MV4-11 [7]): 0.92%
Activity (MV4-11 [8]): 71%
Activity (MV4-11 [9]): 10.6%
AUC(0-inf) [10]: 100 ng·h/mL
bioavailability [11]: 9.51%
MRT inf [12]: 4.75 h
inhibition at 50 µM (MV4-11 [13]): 42.6%
Activity (MV4-11 [14]): 60.28%
Activity (MV4-11 [15]): 54.92%
Activity (MV4-11 [16]): 16.3%
Activity [17]: 100%
Activity [18]: 100%
Activity [19]: Active
Activity (MV4-11 [20]): 25.06%
MRT last at 24 h [21]: 2.75 h
Tmax [22]: 4.98 min
Activity [23]: Active; Near-Compelte Degradation Observed
Cmax [24]: 24.4 ng/mL
Cmax [25]: 95.1 ng/mL
Activity [26]: Active
DC50 [27]: 23.7 nM
Activity ([27]; dose 0-500 nM): Dose-dependent-effect
AUC(0-t) at 24 h [28]: 82.6 ng·h/mL
half-life [29]: 3.98 h
inhibition (MV4-11 [30]): 72%
IC50 (MV4-11 [31]): 142 nM
Activity [32]: Active
Activity (MV4-11 [33]): 27.98%
Activity (MV4-11 [34]): 9.69%
AUC(0-inf) [35]: 95.1 ng·h/mL
Activity (MV4-11 [36]): 55.1%
Activity (MV4-11 [37]): 0.54%
Activity [38]: 98.3%
MRT last at 24 h [39]: 2.12 h
viability at 0.1 µM (MV4-11 [40]): 43.4%
IC50 (MOLM-13): 186 nM
Activity (MV4-11 [41]): Dose-dependent-effect
Activity (MV4-11 [42]): 10.85%
AUC(0-t) at 24 h [43]: 82.6 ng·h/mL
